pIC50: −log10 of the molar value. Like-named read-outs stand apart in the source and are kept apart here.
Legend:
[1] = biological target: PARP-1 enzyme (Homo sapiens, UniProt P09874); assay: In vitro filtration assay for PARP-1 inhibitory activity; type: biochemical; settings: for IC50: [32P]-NAD, histones, nicked DNA, read-out: in vitro filter assay PARP-1 pIC50 (converted)
Protocol: In Vitro Filtration Assay for PARP-1 Inhibitory Activity
Compounds of the present invention were tested in an in vitro filtration assay assessing PARP-1 activity (triggered in the presence of nicked DNA) by means of its histone poly (ADP-ribosyl)ation activity using [^32P]-NAD as ADP-ribosyl donor. The radioactive ribosylated histones were precipitated by trichloroacetic acid (TCA) in 96-well filterplates and the incorporated [^32P] measured using a scintillation counter
A mixture of histones (stock solution: 5 mg/ml in H2O), NAD^+ (stock solution: 100 mM in H2O), and [^32P]-NAD^+ in incubation buffer (50 mM Tris/HCl, pH 8; 0.2 mM DTT; 4 mM MgCl2) was made. A mixture of the PARP-1 enzyme (5-10 μg/ml) and nicked DNA was also made. The nicked DNA was prepared as described in the in vitro SPA for PARP-1 inhibitory activity. Seventy-five μl of the PARP-1 enzyme/DNA mixture together with 1 μl of compound in DMSO and 25 μl of histones-NAD^+/[^32P]-NAD^+ mixture was added per well of a 96-well filterplate (0.45 μm, supplier Millipore). The final concentrations in the incubation mixture were 2 μg/ml for the histones, 0.1 mM for the NAD^+, […] (0.5 μC) for the [^32P]-NAD^+ and 2 μg/ml for the nicked DNA. Plates were incubated for 15 min. at room temperature and the reaction was terminated by the addition of 10 μl ice cold 100% TCA followed by the addition of 10 μl ice-cold BSA solution (1% in H2O). The protein fraction was allowed to precipitate for 10 min. at 4° C. and plates were vacuum filtered. The plates were subsequently washed with, for each well, 1 ml of 10% ice cold TCA, 1 ml of 5% ice cold TCA and 1 ml of 5% TCA at room temperature. Finally 100 μl of scintillation solution (Microscint 40, Packard) was added to each well and the plates were transferred to a TopCountNXT™ (supplier: Packard) for scintillation counting and values were expressed as counts per minute (cpm). For each experiment, controls (containing PARP-1 enzyme and DMSO without compound), a blank incubation (containing DMSO but no PARP-1 enzyme or compound) and samples (containing PARP-1 enzyme and compound dissolved in DMSO) were run in parallel. All compounds tested were dissolved and eventually further diluted in DMSO. In first instance, compounds were tested at a concentration of 10^−5M. […] In each test, the blank value was subtracted from both the control and the sample values. The control sample represented maximal PARP-1 enzyme activity. For each sample, the amount of cpm was expressed as a percentage of the mean cpm value of the controls. […] Herein the effects of test compounds are expressed as pIC50 (the negative log value of the IC50-value).

Chain of PARP-1 enzyme (P09874 whole entry): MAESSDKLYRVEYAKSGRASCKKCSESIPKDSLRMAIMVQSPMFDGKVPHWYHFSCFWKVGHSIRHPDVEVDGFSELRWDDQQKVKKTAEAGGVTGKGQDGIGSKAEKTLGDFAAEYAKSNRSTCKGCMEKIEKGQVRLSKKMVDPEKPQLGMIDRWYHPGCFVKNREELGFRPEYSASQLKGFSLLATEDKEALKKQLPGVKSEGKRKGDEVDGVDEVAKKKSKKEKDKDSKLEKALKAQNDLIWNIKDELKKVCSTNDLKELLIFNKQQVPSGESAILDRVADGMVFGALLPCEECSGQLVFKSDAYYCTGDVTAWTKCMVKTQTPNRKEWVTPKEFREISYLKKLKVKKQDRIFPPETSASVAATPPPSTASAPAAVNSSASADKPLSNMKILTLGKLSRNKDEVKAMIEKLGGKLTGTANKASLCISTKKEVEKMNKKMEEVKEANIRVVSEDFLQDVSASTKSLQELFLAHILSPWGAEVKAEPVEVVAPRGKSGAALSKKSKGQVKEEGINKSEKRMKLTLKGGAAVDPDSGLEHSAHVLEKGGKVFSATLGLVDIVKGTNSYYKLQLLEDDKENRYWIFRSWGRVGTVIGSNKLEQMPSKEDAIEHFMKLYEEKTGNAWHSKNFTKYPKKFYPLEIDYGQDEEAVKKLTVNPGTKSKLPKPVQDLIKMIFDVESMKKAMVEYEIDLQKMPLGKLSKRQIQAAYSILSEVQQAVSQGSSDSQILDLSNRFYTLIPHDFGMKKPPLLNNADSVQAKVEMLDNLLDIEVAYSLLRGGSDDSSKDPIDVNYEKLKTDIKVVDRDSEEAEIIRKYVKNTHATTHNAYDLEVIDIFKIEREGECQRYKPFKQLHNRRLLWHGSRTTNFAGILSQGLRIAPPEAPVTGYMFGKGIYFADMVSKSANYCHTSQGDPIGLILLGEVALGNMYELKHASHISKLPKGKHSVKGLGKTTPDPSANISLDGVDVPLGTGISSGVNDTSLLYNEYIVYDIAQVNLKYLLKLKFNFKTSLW

Compound	IC50 [1] [µM]	melting point [°C]	pIC50 [1]
O=c1[nH]c(=O)n(C2CCN(CCCn3c(=O)[nH]c4ccccc43)CC2)c2ccccc12 [Compound 5]	1.74	–	–
O=c1[nH]c(=O)n(C2CCN(CC(O)C3CCc4ccccc4O3)CC2)c2ccccc12 (stereo in doubt) [Compound 9, 1-[1-[(2S)-2-[(2R)-3,4-dihydro-2H-1-benzopyran-2-yl]-2-hydroxyethyl]-4-piperidinyl]-2,4(1H,3H)-quinazolinedione]	2.18	–	–
O=c1[nH]c(=O)n(C2CCNCC2)c2ccccc12 [Compound 1]	0.465	253.7	–
O=C(c1ccc(F)cc1)C1CCN(CCn2c(=O)[nH]c(=O)c3ccccc32)CC1 [Compound 10, 1-[2-[4-(4-fluorobenzoyl)-1-piperidinyl]ethyl]-2,4-(1H,3H)-quinazolinedione]	1.8	–	–
O=C(c1ccc(F)cc1)C1CCN(CCCn2c(=O)[nH]c(=O)c3ccccc32)CC1 [Compound 11, 1-[3-[4-(4-fluorobenzoyl)-1-piperidinyl]propyl]-2,4-(1H,3H)-quinazolinedione]	2.72	–	–
O=c1[nH]c(=O)n(CCCN2CCC(O)(c3ccc(Cl)cc3)CC2)c2ccccc12 [Compound 7]	3.24	–	–
O=C(CCCN1CCC(n2c(=O)[nH]c(=O)c3ccccc32)CC1)c1ccc(F)cc1 [Compound 2]	1.57	195	–
O=c1[nH]c(=O)n(CCCN2CCC(c3c[nH]c4ccccc34)CC2)c2ccccc12 [Compound 3]	–	216.8	5.99
O=c1[nH]c(=O)n(CCN2CCC(O)(c3ccc(Cl)cc3)CC2)c2ccccc12 [Compound 6]	1.33	–	–

— US9255080B2, “Quinazolinedione derivatives as PARP inhibitors” (Janssen Pharmaceutica NV, priority 2004, dated 2016)
